US8193364B2, “Insecticidal N-substituted (6-haloalkylpyridin-3-yl)-alkyl sulfoximines” (Dow AgroSciences, LLC., priority 2006, dated 2012)
Like-named read-outs stand apart in the source and are kept apart here.

Legend:
Type in all cases: in vivo
[1] = system: Cotton Aphid (Aphis gossypii); experiment: Cotton aphid foliar spray assay on squash; settings: 72 h, read-out: % Control of cotton aphid on squash (foliar spray)
Procedure: Squash with fully expanded cotyledon leaves were trimmed to one cotyledon per plant and infested with cotton aphid (wingless adult and nymph) 1 day prior to chemical application. Each plant was examined before chemical application to ensure proper infestation (ca. 30-70 aphids per plant). Compounds (2 mg) were dissolved in 2 ml of acetone:methanol (1:1) solvent, forming stock solutions of 1000 ppm. The stock solutions were then diluted with a diluent consisting 80 parts of 0.025% Tween 20 in H2O and 20 parts of acetone:methanol (1:1). A hand-held Devilbiss sprayer was used to apply the test solutions until runoff to both sides of the squash cotyledon leaves. Four plants (4 replications) were used for each concentration of each compound. Reference plants (solvent check) were sprayed with the diluent only. Treated plants were held in a holding room for 3 days at approximately 23° C. and 40% RH before the number of live aphids on each plant was recorded. Insecticidal activity was measured by Corrected % Control using Abbott's correction formula and presented in Table 1: Corrected % Control=100*(X−Y)/X • where X=No. of live aphids on solvent check plants • Y=No. of live aphids on treated plants

[2] = system: Green Peach Aphid (Myzus persicae); experiment: Green peach aphid foliar spray assay on cabbage; settings: 72 h, read-out: % Control at ppm, foliar spray, green peach aphid on cabbage
Procedure: Cabbage seedlings grown in 3-inch pots, with 2-3 small (3-5 cm) true leaves, were used as test substrate. The seedlings were infested with 20-50 green peach aphids (wingless adult and nymph) 2-3 days prior to chemical application. Four seedlings were used for each treatment. Compounds (2 mg) were dissolved in 2 ml of acetone:methanol (1:1) solvent, forming stock solutions of 1000 ppm. The stock solutions were then diluted with a diluent consisting 80 parts of 0.025% Tween 20 in […] and 20 parts of acetone:methanol (1:1). A hand-held Devilbiss sprayer was used for spraying the test solutions to both sides of cabbage leaves until runoff. Reference plants (solvent check) were sprayed with the diluent only. Treated plants were held in a holding room for three days at approximately 23° C. and 40% RH prior to grading. Evaluation was conducted by counting the number of live aphids per plant under a microscope. Insecticidal activity was measured by using Abbott's correction formula: Corrected % Control=100*(X−Y)/X • where X=No. of live aphids on solvent check plants • Y=No. of live aphids on treated plants The Corrected % Control values from assays are given in Table 2.

[3] = system: Brown Planthopper (Nilaparvata lugens); experiment: Brown planthopper root-uptake systemic assay on rice
Procedure: (§1) A foliar spray assay and a root-uptake systemic assay were performed on both brown planthopper and green leafhopper. Four-week-old rice seedlings were submerged in 3-cm depth of water in the bottom portion (high 5 cm, diameter 3 cm) of a 2-part glass cylinder (high 18 cm, diameter 3 cm). A metal screen was used to hold the seedlings within the bottom portion. Scotch tape was used to bind the two portions of the cylinder after setting up the seedlings. A metal cap was used to cover the cylinder. There were 4 cylinders for each treatment. The test compound was dissolved in acetone to make a 10,000 ppm stock solution. For the foliar spray assay, this stock solution was diluted with water to make 10, 2.5, 0.31, 0.08 and 0.02 ppm test solutions. A volume of 0.5 ml of a test solution or solvent blank as check was sprayed into the glass cylinder. For systemic test, the stock solution was incorporated at final test concentrations of 10, 2.5, 0.31, 0.08 and 0.02 ppm in the water in which rice seedlings were submerged. In both foliar spray and systemic tests, five laboratory-reared 3rd instar nymphs of brown planthopper or green leafhopper were introduced into each cylinder 3 hr after insecticide application. The treated test units were kept in a growth chamber with conditions set as followings: Temperature 28±0.5° C.; Relative humidity 70±0.5%; Photoperiod […].

[4] = system: Green Leafhopper (Nephotettix sp.); experiment: Green leafhopper foliar spray assay on rice
Procedure: as §1

[5] = system: Brown Planthopper (Nilaparvata lugens); experiment: Brown planthopper foliar spray assay on rice
Procedure: as §1

[6] = system: Green Leafhopper (Nephotettix sp.); experiment: Green leafhopper root-uptake systemic assay on rice
Procedure: as §1

CS(=O)(Cc1ccc(C(F)F)nc1)=NC#N (centres unmarked) [Compound 7, [(6-difluoromethylpyridin-3-yl)methyl](methyl)-oxido-λ^4-sulfanylidenecyanamide]
pest or weed control at 0.049 ppm ([1]; 0.049 ppm, 3 days after spray): < 50%
pest or weed control at 0.195 ppm ([1]; 0.195 ppm, 3 days after spray): 80 to 89%
pest or weed control at 0.781 ppm ([1]; 0.781 ppm, 3 days after spray): 90 to 100%
pest or weed control at 3.13 ppm ([1]; 3.13 ppm, 3 days after spray): 90 to 100%

CC(c1ccc(C(F)(F)Cl)nc1)S(C)(=O)=NC#N (centres unmarked) [Compound 4, (1-{6-[chloro(difluoro)methyl]pyridin-3-yl}ethyl)(methyl)-oxido-λ^4-sulfanylidenecyanamide]
pest or weed control at 0.195 ppm [2]: 80 to 89%
pest or weed control at 0.781 ppm [2]: 90 to 100%
pest or weed control at 3.125 ppm [2]: 90 to 100%
% Control at ppm against brown planthopper ([3]; 0.02 ppm in water): F (Less than 50)
% Control at ppm against brown planthopper ([3]; 0.08 ppm in water): E (50-59)
% Control at ppm against brown planthopper ([3]; 0.31 ppm in water): A (90-100)
% Control at ppm against brown planthopper ([3]; 2.5 ppm in water): A (90-100)
% Control at ppm against brown planthopper ([3]; 10 ppm in water): A (90-100)
% Control at ppm against green leafhopper ([4]; 0.02 ppm): E (50-59)
% Control at ppm against green leafhopper ([4]; 0.08 ppm): B (80-89)
% Control at ppm against green leafhopper ([4]; 0.31 ppm): A (90-100)
% Control at ppm against green leafhopper ([4]; 2.5 ppm): A (90-100)
% Control at ppm against green leafhopper ([4]; 10 ppm): A (90-100)
% Control at ppm against brown planthopper ([5]; 0.02 ppm): F (Less than 50)
% Control at ppm against brown planthopper ([5]; 0.08 ppm): E (50-59)
% Control at ppm against brown planthopper ([5]; 0.31 ppm): B (80-89)
% Control at ppm against brown planthopper ([5]; 2.5 ppm): A (90-100)
% Control at ppm against brown planthopper ([5]; 10 ppm): A (90-100)
pest or weed control at 0.049 ppm [1]: 90 to 100%
pest or weed control at 0.195 ppm [1]: 90 to 100%
pest or weed control at 0.781 ppm [1]: 90 to 100%
pest or weed control at 3.13 ppm [1]: 90 to 100%
% Control at ppm against green leafhopper ([6]; 0.02 ppm in water): E (50-59)
% Control at ppm against green leafhopper ([6]; 0.08 ppm in water): C (70-79)
% Control at ppm against green leafhopper ([6]; 0.31 ppm in water): A (90-100)
% Control at ppm against green leafhopper ([6]; 2.5 ppm in water): A (90-100)
% Control at ppm against green leafhopper ([6]; 10 ppm in water): A (90-100)

CC(c1ccc(C(F)(F)F)nc1)S(C)(=O)=N[N+](=O)[O-] (centres unmarked) [Compound 11, 2-trifluoromethyl-5-(1-{methyl(oxido)[oxido(oxo)hydrazono]-λ^4-sulfanyl}ethyl)pyridine]
pest or weed control at 0.195 ppm ([2]; 0.195 ppm, 3 days after spray): 70 to 79%
pest or weed control at 0.781 ppm ([2]; 0.781 ppm, 3 days after spray): 80 to 89%
pest or weed control at 3.125 ppm ([2]; 3.125 ppm, 3 days after spray): 90 to 100%
pest or weed control at 0.049 ppm ([1]; 0.049 ppm, 3 days after spray): 60 to 69%
pest or weed control at 0.195 ppm ([1]; 0.195 ppm, 3 days after spray): 60 to 69%
pest or weed control at 0.781 ppm ([1]; 0.781 ppm, 3 days after spray): 90 to 100%
pest or weed control at 3.13 ppm ([1]; 3.13 ppm, 3 days after spray): 90 to 100%

N#CN=S1(=O)CCCC1c1ccc(C(F)(F)F)nc1 (centres unmarked) [Compound 3, 2-(6-trifluoromethylpyridin-3-yl)-1-oxidotetrahydro-1H-1λ^4-thien-1-ylidenecyanamide]
pest or weed control at 0.195 ppm ([2]; 0.195 ppm, 3 days after spray): < 50%
pest or weed control at 0.781 ppm ([2]; 0.781 ppm, 3 days after spray): < 50%
pest or weed control at 3.125 ppm ([2]; 3.125 ppm, 3 days after spray): 60 to 69%
pest or weed control at 0.049 ppm ([1]; 0.049 ppm, 3 days after spray): 90 to 100%
pest or weed control at 0.195 ppm ([1]; 0.195 ppm, 3 days after spray): 90 to 100%
pest or weed control at 0.781 ppm ([1]; 0.781 ppm, 3 days after spray): 90 to 100%
pest or weed control at 3.13 ppm ([1]; 3.13 ppm, 3 days after spray): 90 to 100%

CC(c1ccc(C(F)(F)C(F)(F)F)nc1)S(C)(=O)=NC#N (centres unmarked) [Compound 9, [1-(6-pentafluoroethylpyridin-3-yl)ethyl](methyl)-oxido-λ^4-sulfanylidenecyanamide]
pest or weed control at 0.781 ppm ([1]; 0.781 ppm, 3 days after spray): 50 to 59%
pest or weed control at 3.13 ppm ([1]; 3.13 ppm, 3 days after spray): 90 to 100%

CS(=O)(CCc1ccc(C(F)(F)F)nc1)=NC#N (centres unmarked) [Compound 6, [2-(6-trifluoromethylpyridin-3-yl)ethyl](methyl)-oxido-λ^4-sulfanylidenecyanamide]
pest or weed control at 0.781 ppm ([1]; 0.781 ppm, 3 days after spray): 80 to 89%
pest or weed control at 3.13 ppm ([1]; 3.13 ppm, 3 days after spray): 80 to 89%

CC(c1ccc(C(Cl)(Cl)Cl)nc1)S(C)(=O)=NC#N (centres unmarked) [Compound 5, [1-(6-trichloromethylpyridin-3-yl)ethyl](methyl)-oxido-λ^4-sulfanylidenecyanamide]
pest or weed control at 0.781 ppm [2]: < 50%
pest or weed control at 3.125 ppm [2]: 80 to 89%
pest or weed control at 0.049 ppm [1]: 50 to 59%
pest or weed control at 0.195 ppm [1]: 80 to 89%
pest or weed control at 0.781 ppm [1]: 90 to 100%
pest or weed control at 3.13 ppm [1]: 90 to 100%

CC(c1ccc(C(C)(F)F)nc1)S(C)(=O)=NC#N (centres unmarked) [Compound 12]
pest or weed control at 0.781 ppm ([2]; 0.781 ppm, 3 days after spray): 50 to 59%
pest or weed control at 3.125 ppm ([2]; 3.125 ppm, 3 days after spray): 80 to 89%
pest or weed control at 0.781 ppm ([1]; 0.781 ppm, 3 days after spray): 90 to 100%
pest or weed control at 3.13 ppm ([1]; 3.13 ppm, 3 days after spray): 90 to 100%

N#CN=S1(=O)CCCC1Cc1ccc(C(F)(F)F)nc1 (centres unmarked) [Compound 10, 2-[(6-trifluoromethylpyridin-3-yl)methyl]-1-oxidotetrahydro-1H-1λ^4-thien-1-ylidenecyanamide]
pest or weed control at 0.781 ppm [1]: 60 to 69%
pest or weed control at 3.13 ppm [1]: 70 to 79%

CS(=O)(Cc1ccc(C(F)(F)F)nc1)=NC#N (centres unmarked) [Compound 1, [(6-trifluoromethylpyridin-3-yl)methyl](methyl)-oxido-λ^4-sulfanylidenecyanamide]
pest or weed control at 0.781 ppm ([2]; 0.781 ppm, 3 days after spray): < 50%
pest or weed control at 3.125 ppm ([2]; 3.125 ppm, 3 days after spray): 90 to 100%
pest or weed control at 0.049 ppm ([1]; 0.049 ppm, 3 days after spray): 90 to 100%
pest or weed control at 0.195 ppm ([1]; 0.195 ppm, 3 days after spray): 90 to 100%
pest or weed control at 0.781 ppm ([1]; 0.781 ppm, 3 days after spray): 90 to 100%
pest or weed control at 3.13 ppm ([1]; 3.13 ppm, 3 days after spray): 90 to 100%

CC(c1ccc(C(F)F)nc1)S(C)(=O)=NC#N (centres unmarked) [Compound 8, [1-(6-difluoromethylpyridin-3-yl)ethyl](methyl)-oxido-λ^4-sulfanylidenecyanamide]
pest or weed control at 0.195 ppm ([2]; 0.195 ppm, 3 days after spray): < 50%
pest or weed control at 0.781 ppm ([2]; 0.781 ppm, 3 days after spray): < 50%
pest or weed control at 3.125 ppm ([2]; 3.125 ppm, 3 days after spray): < 50%
pest or weed control at 0.049 ppm ([1]; 0.049 ppm, 3 days after spray): 70 to 79%
pest or weed control at 0.195 ppm ([1]; 0.195 ppm, 3 days after spray): 90 to 100%
pest or weed control at 0.781 ppm ([1]; 0.781 ppm, 3 days after spray): 90 to 100%
pest or weed control at 3.13 ppm ([1]; 3.13 ppm, 3 days after spray): 90 to 100%
